Laboratory results from US11725037B2, “Peptide dual agonists of GIPR and GLP2R” (University of Copenhagen, priority 2017, dated 2023).
Read-outs that look alike come from different tables or passages of the source. Ends that are not written are not given here.

Key:
[1] = tested on: bone resorption (serum C-terminal cross-linking telopeptide of type I collagen, CTX); experiment: Human study 1: bone resorption by serum CTX after subcutaneous injection of GIP or GLP-2; assay type: in vivo
Protocol: Method: Eight healthy young men were enrolled. […] Participants arrived in the morning (fasted overnight) and received the injection around 8.30 a.m. Blood samples were collected before (−25 and −10 min) and every 30 minutes after injection (30, 60, 90, 120, 180 and 240 min). After last participant's last visit, bone resorption was determined by measurements of serum C-terminal cross-linking telopeptide of type I collagen (CTX; IDS Immunodiagnostic Systems GmbH, Frankfurt am Main, Germany)

human GIP receptor = molecular target: T1, human GIP receptor (Homo sapiens, UniProt P48546); experiment: cAMP accumulation assay (HitHunter cAMP XS) in transiently transfected COS-7 cells expressing the human GIP receptor; assay type: cell-based; conditions: for Emax at 10 µM: COS-7, read-out: Emax (10 μM), GIP receptor; for fold (fold change of native GIP), GIP receptor: EC50 relative to native GIP; for Emax at 1 µM: COS-7, read-out: Emax, GIP receptor
T1 construct: host or cells: COS-7 (transient, calcium phosphate; pCMV-Script vector)
T1 sequence (P48546 22-466): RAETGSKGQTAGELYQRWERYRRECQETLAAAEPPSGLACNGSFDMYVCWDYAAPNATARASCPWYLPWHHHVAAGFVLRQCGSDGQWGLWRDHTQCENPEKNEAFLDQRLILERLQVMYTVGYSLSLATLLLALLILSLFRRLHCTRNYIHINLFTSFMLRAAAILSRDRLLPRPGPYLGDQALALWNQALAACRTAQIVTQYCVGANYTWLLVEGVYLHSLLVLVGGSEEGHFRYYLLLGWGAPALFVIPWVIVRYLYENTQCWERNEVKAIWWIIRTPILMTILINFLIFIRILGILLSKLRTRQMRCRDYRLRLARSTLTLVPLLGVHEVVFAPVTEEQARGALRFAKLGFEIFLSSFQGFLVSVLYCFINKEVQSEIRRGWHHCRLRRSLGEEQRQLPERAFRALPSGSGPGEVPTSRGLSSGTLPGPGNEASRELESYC
Protocol: (§1) The day after, the cells were washed twice with Hepes buffered saline (HBS) buffer and incubated with HBS and 1 mM 3-isobutyl-1-methylxanthine (IBMX) for 30 min at 37° C. Ligands were added and incubated for 30 min at 37° C. The HitHunter™ cAMP XS assay (DiscoveRx) was carried out according to the manufacturer's instructions.

human GLP-2 receptor = molecular target: T2, human GLP-2 receptor (Homo sapiens, UniProt O95838); experiment: cAMP accumulation assay (HitHunter cAMP XS) in transiently transfected COS-7 cells expressing the human GLP-2 receptor; assay type: cell-based; conditions: for Emax at 10 µM: COS-7, read-out: Emax (10 μM), GLP-2 receptor; for fold (fold change of native GLP-2), GLP-2 receptor: EC50 relative to native GLP-2; for Emax at 1 µM: COS-7, read-out: Emax, GLP-2 receptor
T2 construct: host or cells: COS-7 (transient, calcium phosphate; pCMV-Script vector)
T2 sequence (O95838 1-553): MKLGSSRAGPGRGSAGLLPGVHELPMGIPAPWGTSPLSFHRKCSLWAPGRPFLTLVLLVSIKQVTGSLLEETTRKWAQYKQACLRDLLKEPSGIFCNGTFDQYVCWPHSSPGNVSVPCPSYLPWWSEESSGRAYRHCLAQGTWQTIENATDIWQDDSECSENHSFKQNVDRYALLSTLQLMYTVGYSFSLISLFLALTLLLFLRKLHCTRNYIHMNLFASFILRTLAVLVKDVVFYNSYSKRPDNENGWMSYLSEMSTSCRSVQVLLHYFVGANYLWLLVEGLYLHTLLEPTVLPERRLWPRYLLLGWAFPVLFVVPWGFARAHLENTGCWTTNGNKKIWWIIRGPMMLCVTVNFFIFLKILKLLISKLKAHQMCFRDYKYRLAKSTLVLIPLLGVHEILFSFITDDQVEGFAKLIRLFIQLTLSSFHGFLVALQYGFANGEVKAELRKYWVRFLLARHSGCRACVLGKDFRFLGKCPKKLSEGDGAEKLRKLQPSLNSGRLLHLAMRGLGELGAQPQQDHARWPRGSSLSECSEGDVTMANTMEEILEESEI
Protocol: as §1

[2] = logEC50, GIP receptor, Table 2, log value, cAMP, COS-7
[3] = logEC50, GLP-2 receptor, Table 2, cAMP, COS-7
[4] = logEC50, GLP-2 receptor, Table 1, cAMP, COS-7
[5] = logEC50, GIP receptor, Table 1, log value, cAMP, COS-7
[6] = EC50(nM), GLP-2 receptor, Table 1, cAMP, COS-7

Row | Compound | Emax at 10 µM (human GIP receptor) | Emax at 10 µM (human GLP-2 receptor) | fold (fold change of native GIP), GIP receptor (human GIP receptor; Table 1) | fold (fold change of native GLP-2), GLP-2 receptor (human GLP-2 receptor; Table 1) | other results
1 | CC[C@H](C)[C@H](NC(=O)[C@H](Cc1ccccc1)NC(=O)[C@H](CC(=O)O)NC(=O)[C@H](CCCNC(=N)N)NC(=O)[C@H](C)NC(=O)[C@H](C)NC(=O)[C@H](CC(C)C)NC(=O)[C@H](CC(N)=O)NC(=O)[C@H](CC(=O)O)NC(=O)[C@H](CC(C)C)NC(=O)[C@@H](NC(=O)[C@@H](NC(=O)[C@H](CC(N)=O)NC(=O)[C@H](CCSC)NC(=O)[C@H](CCC(=O)O)NC(=O)[C@H](CC(=O)O)NC(=O)[C@H](CO)NC(=O)[C@H](Cc1ccccc1)NC(=O)[C@H](CO)NC(=O)CNC(=O)[C@H](CC(=O)O)NC(=O)[C@H](C)NC(=O)[C@@H](N)Cc1c[nH]cn1)[C@@H](C)O)[C@@H](C)CC)C(=O)N[C@@H](CC(N)=O)C(=O)N[C@@H](Cc1c[nH]c2ccccc12)C(=O)N[C@@H](CC(C)C)C(=O)N[C@H](C(=O)N[C@@H](CCC(N)=O)C(=O)N[C@H](C(=O)N[C@@H](CCCCN)C(=O)N[C@H](C(=O)N[C@H](C(=O)N[C@@H](CC(=O)O)C(=O)O)[C@@H](C)O)[C@@H](C)CC)[C@@H](C)O)[C@@H](C)CC [GLP-2, reference compound] | 22% | – | – | – | reduction in bone resorption (CTX) ([1]; 200 μg GIP and 800 μg GLP-2, each alone, s.c., restated in Example 4): ~50%; bone resorption (CTX), maximum effect, % of base line ([1]; human GLP-2 800 μg s.c., healthy young men, 180 min after administration): 63.4±3.4 % of base line; EC50 (human GIP receptor; EC50(nM), GIP receptor, Table 1, cAMP, COS-7): 56 nM
2 | HADGTFISDYSKILDNLAARDFINWLIQTKITK [Co-agonist 24] | 100% | 96% | – | – | fold (fold change of native GIP), GIP receptor (human GIP receptor; Table 2): 1.7 fold; EC50 (human GIP receptor; [2]): 0.151 nM; fold (fold change of native GLP-2), GLP-2 receptor (human GLP-2 receptor; Table 2): 0.62 fold
3 | HADGTFISDYSTIKDNLAARDFINWLIQTKITK [Co-agonist 25] | 92% | 92% | – | – | fold (fold change of native GIP), GIP receptor (human GIP receptor; Table 2): 4.9 fold; fold (fold change of native GLP-2), GLP-2 receptor (human GLP-2 receptor; Table 2): 2.9 fold; EC50 (human GLP-2 receptor; [3]): 3.47 nM
4 | HADGTFISDYSTILDKLAARDFINWLIQTKITK [Co-agonist 26] | 100% | 100% | – | – | fold (fold change of native GIP), GIP receptor (human GIP receptor; Table 2): 0.34 fold; EC50 (human GIP receptor; [2]): 0.0302 nM; fold (fold change of native GLP-2), GLP-2 receptor (human GLP-2 receptor; Table 2): 0.26 fold; EC50 (human GLP-2 receptor; [3]): 0.309 nM
5 | HADGTFISDYSTILDNLAARDFINWLIQTKGKKNDWKHNITQ [Co-agonist 34] | 100% | 94% | – | – | EC50 (human GLP-2 receptor; [3]): 1.15 nM
6 | HADGTFISDYSTILDNLAARDFINWLIQTKGTD [Co-agonist 16] | 95% | 74% | 6.7 fold | 68 fold | EC50 (human GLP-2 receptor; [4]): 87.1 nM
7 | HADGTFISDYSTILDNLAARDFINWLIQTKIKD [Co-agonist 17] | 95% | 88% | 4.5 fold | 21 fold | EC50 (human GLP-2 receptor; [4]): 24.5 nM
8 | HADGTFISDYSTILDNLKARDFINWLIQTKITK [Co-agonist 27] | 100% | 100% | – | – | fold (fold change of native GIP), GIP receptor (human GIP receptor; Table 2): 6.2 fold; fold (fold change of native GLP-2), GLP-2 receptor (human GLP-2 receptor; Table 2): 0.47 fold
9 | HADGTFISEYSTILDNLAARDFINWLIQTKITD [Co-agonist 15] | 92% | 104% | 36 fold | 5.6 fold | EC50 (human GIP receptor; [5]): 3.16 nM
10 | HADGTFSSDYSTILDNLAAKDFINWLIQTKITD [Co-agonist 20] | 98% | 80% | – | – | –
11 | HADGTFSSDYSTILDNLAARDFINWLIQTKITD [Co-agonist 13] | 91% | 99% | 135 fold | 9.2 fold | EC50 (human GIP receptor; [5]): 12 nM; EC50 (human GLP-2 receptor; [4]): 11.2 nM
12 | HAEGSFISDYSTILDNLAARDFINWLIQTKITD [Co-agonist 4] | 83% | 90% | 427 fold | 21 fold | EC50 (human GIP receptor; [5]): 38 nM; EC50 (human GLP-2 receptor; [6]): 25 nM; EC50 (human GLP-2 receptor; [4]): 25.7 nM
13 | HAEGTFISDMNTILDNLAARDFINWLIQTKITD [Co-agonist 6] | 83% | 70% | 1933 fold | 50 fold | –
14 | HAEGTFISDYSIAMDKLAARDFINWLIQTKITD [Co-agonist 7] | 92% | 78% | 292 fold | 293 fold | EC50 (human GIP receptor): 25.7 nM
15 | HAEGTFISDYSTILDNIHQQDFINWLIQTKITD [Co-agonist 8] | 100% | 22% | 66 fold | – | EC50 (human GLP-2 receptor): > 10000 nM
16 | HAEGTFISDYSTILDNLAARDFINWLIQTKGKK [Co-agonist 10] | 100% | 77% | 61 fold | 18 fold | EC50 (human GLP-2 receptor): 21.9 nM
17 | HAEGTFISDYSTILDNLAARDFINWLIQTKITD [Co-agonist 1] | – | – | 337 fold | 82 fold | EC50 (human GIP receptor): 29.5 nM; Emax at 1 µM (human GIP receptor): 100%; Emax at 1 µM (human GLP-2 receptor): 93%
18 | HAEGTFISDYSTILDNLAARDFINWLIQTKITDNDWKHNITQ [Co-agonist 2] | – | – | 135 fold | 121 fold | EC50 (human GIP receptor): 12 nM; Emax at 1 µM (human GIP receptor): 100%; Emax at 1 µM (human GLP-2 receptor): 93%
19 | HAEGTFISDYSTILDNLAARDFVNWLLAQKITD [Co-agonist 9] | 100% | 67% | 36 fold | 103 fold | EC50 (human GIP receptor): 3.16 nM
20 | HAEGTFSDEYSTILDNLAARDFINWLIQTKITD [Co-agonist 5] | 75% | 91% | 5124 fold | 5.2 fold | EC50 (human GLP-2 receptor; [6]): 6.2 nM
21 | HGDGTFISDYSTILDNLAARDFINWLIQTKITD [Co-agonist 11] | 95% | 87% | 36 fold | 20 fold | EC50 (human GIP receptor; [5]): 3.16 nM; EC50 (human GLP-2 receptor; [4]): 24 nM
22 | HVDGTFISDYSTILDNLAARDFINWLIQTKITD [Co-agonist 12] | 96% | 81% | 12 fold | 21 fold | EC50 (human GIP receptor; [5]): 1.1 nM; EC50 (human GLP-2 receptor; [4]): 25.1 nM
